Measured values: ChEMBL document CHEMBL1153865, “The metabolism of CYP2C9 and CYP2C19 for gliclazide by homology modeling and docking study” (Eur J Med Chem, 2009)

Columns and labels:
Type in all cases: ADME
Cytochrome P450 2C19 [1] = target: T1, Cytochrome P450 2C19 (Homo sapiens, UniProt P33261); assay: Inhibition of CYP2C19
Cytochrome P450 2C9 [2] = target: T2, Cytochrome P450 2C9 (Homo sapiens, UniProt P11712); assay: Activity at recombinant CYP2C9 by Michaelis-Menten method; settings: recombinant enzyme
Cytochrome P450 2C19 [3] = target: T1, Cytochrome P450 2C19; assay: Activity at recombinant CYP2C19 by Michaelis-Menten method; settings: recombinant enzyme
Cytochrome P450 2C19 [4] = target: T1, Cytochrome P450 2C19; assay: Inhibition of CYP2C19 assessed as decrease in catalytic reaction velocity at 100 uM by substrate-inhibition assay
Cytochrome P450 2C9 [5] = target: T2, Cytochrome P450 2C9; assay: Inhibition of CYP2C9 assessed as decrease in catalytic reaction velocity at 200 uM by substrate-inhibition assay

T1 sequence (P33261 whole entry): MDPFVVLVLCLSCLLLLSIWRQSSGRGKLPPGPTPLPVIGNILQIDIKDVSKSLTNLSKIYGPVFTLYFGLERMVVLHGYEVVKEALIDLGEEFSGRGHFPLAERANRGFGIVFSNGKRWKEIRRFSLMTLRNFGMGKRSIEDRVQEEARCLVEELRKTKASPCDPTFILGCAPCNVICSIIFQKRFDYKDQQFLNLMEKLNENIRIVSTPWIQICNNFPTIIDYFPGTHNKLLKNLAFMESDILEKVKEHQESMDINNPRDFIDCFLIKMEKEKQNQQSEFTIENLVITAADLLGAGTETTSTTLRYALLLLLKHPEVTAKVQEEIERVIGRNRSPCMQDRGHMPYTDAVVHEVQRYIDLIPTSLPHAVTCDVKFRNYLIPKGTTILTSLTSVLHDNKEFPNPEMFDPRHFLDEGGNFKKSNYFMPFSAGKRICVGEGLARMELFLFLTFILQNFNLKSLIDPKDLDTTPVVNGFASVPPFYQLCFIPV
T2 sequence (P11712 whole entry): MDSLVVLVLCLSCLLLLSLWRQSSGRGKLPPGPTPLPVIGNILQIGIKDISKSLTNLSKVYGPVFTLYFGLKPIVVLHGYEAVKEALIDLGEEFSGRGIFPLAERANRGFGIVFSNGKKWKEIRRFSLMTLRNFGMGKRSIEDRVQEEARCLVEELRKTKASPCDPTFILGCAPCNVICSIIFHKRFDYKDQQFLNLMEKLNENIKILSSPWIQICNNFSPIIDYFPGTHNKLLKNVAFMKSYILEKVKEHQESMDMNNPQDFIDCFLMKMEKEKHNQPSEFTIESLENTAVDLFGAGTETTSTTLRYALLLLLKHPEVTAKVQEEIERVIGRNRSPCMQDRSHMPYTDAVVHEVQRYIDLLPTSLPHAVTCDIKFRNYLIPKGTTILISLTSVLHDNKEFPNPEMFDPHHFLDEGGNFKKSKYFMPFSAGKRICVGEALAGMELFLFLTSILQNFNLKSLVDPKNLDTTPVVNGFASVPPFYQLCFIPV

Compound	Ki (Cytochrome P450 2C19 [1])	Vmax (Cytochrome P450 2C9 [2])	Vmax (Cytochrome P450 2C19 [3])	inhibition (INH) (Cytochrome P450 2C19 [4])	inhibition (INH) (Cytochrome P450 2C9 [5])
CCC1(c2ccccc2)C(=O)NC(=O)N(Cc2ccccc2)C1=O (configuration not stated)	79 µM	–	–	–	–
Cc1ccc(S(=O)(=O)NC(=O)NN2C[C@@H]3CC[C@@H](O)[C@@H]3C2)cc1	–	0.6 pmol/min	14.9 pmol/min	–	–
Cc1ccc(S(=O)(=O)NC(=O)NN2CC3CCCC3C2)cc1 (configuration not stated) [GLICLAZIDE]	–	–	–	Not Active	Not Active
O=C(NN1C[C@H]2CCC[C@H]2C1)NS(=O)(=O)c1ccc(CO)cc1 [METHYLHYDROXYLGLICLAZIDE]	–	0.6 pmol/min	12.1 pmol/min	–	–
